Experiments:
[1] = target: 3',5'-cyclic-AMP phosphodiesterase 4D (Homo sapiens, UniProt Q08499); assay type: functional
[2] = target: T1, Prostaglandin G/H synthase 1 (Rattus norvegicus, UniProt Q63921); assay type: functional
T1 sequence (Q63921 whole entry): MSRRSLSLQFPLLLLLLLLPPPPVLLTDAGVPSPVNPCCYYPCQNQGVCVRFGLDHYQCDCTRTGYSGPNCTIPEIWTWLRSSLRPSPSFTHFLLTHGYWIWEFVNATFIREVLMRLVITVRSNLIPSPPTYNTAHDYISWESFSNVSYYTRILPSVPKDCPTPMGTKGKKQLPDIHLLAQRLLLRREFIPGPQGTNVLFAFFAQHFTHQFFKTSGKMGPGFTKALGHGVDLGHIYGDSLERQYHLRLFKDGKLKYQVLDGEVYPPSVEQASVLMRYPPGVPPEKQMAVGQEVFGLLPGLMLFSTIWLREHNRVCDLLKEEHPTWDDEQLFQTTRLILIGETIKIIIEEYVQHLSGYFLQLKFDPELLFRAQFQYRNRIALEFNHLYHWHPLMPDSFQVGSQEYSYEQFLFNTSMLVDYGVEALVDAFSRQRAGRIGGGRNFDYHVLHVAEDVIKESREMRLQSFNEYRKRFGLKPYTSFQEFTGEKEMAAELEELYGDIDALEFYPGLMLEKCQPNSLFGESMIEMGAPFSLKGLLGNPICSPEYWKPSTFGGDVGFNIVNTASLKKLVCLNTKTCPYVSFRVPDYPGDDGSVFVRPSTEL

[3] = target: Voltage-gated inwardly rectifying potassium channel KCNH2 (Homo sapiens, UniProt Q12809); assay type: functional; conditions: read-out: AC50
[4] = target: Sodium-dependent noradrenaline transporter (Homo sapiens, UniProt P23975)
[5] = target: 5-hydroxytryptamine receptor 2B (Homo sapiens, UniProt P41595); assay type: functional, cell-based
D(3) dopamine receptor = D(3) dopamine receptor (Homo sapiens, UniProt P35462)
[6] = target: Delta-type opioid receptor (Homo sapiens, UniProt P41143)
[7] = target: T2, Cholecystokinin receptor type A (Homo sapiens, UniProt P32238)
T2 sequence (P32238 whole entry): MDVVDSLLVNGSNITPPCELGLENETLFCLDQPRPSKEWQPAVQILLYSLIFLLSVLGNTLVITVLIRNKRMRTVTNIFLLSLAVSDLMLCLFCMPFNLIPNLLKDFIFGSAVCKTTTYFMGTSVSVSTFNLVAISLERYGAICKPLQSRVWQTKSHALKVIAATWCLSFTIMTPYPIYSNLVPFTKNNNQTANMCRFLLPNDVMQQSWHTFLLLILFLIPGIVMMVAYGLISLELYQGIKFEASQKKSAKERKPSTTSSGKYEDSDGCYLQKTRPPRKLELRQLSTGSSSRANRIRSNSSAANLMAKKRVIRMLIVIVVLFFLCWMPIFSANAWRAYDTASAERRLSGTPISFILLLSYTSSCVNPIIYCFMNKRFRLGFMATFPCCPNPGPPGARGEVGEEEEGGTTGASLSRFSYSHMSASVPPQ

[8] = target: Neuronal acetylcholine receptor subunit alpha-4 (Homo sapiens, UniProt P43681)
[9] = target: T3, Alpha-2A adrenergic receptor (Homo sapiens, UniProt P08913); assay type: functional, cell-based
T3 sequence (P08913 whole entry): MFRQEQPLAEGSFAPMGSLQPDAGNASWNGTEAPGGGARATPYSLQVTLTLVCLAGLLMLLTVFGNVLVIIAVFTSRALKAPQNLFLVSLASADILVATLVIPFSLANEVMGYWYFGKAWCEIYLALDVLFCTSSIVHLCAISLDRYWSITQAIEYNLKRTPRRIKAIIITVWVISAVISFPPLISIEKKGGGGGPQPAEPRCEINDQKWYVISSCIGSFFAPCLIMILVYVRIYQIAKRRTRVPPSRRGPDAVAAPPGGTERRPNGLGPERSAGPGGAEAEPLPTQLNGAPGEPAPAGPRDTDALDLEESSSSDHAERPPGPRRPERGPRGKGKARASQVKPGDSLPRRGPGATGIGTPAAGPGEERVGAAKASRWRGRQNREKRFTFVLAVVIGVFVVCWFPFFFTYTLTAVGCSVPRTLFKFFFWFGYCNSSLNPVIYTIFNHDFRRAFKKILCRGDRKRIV

Adenosine receptor A1 = target: T4, Adenosine receptor A1 (Homo sapiens, UniProt P30542)
T4 sequence (P30542 whole entry): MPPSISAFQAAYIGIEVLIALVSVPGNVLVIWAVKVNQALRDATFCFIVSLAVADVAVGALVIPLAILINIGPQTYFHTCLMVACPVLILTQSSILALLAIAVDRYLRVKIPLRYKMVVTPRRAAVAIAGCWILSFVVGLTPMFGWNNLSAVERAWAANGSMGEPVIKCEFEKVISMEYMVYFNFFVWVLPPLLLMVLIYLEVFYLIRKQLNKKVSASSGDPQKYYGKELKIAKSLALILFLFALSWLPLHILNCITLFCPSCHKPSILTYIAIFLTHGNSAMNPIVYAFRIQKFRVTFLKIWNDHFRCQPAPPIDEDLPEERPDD

Bile salt export pump = Bile salt export pump (Homo sapiens, UniProt O95342); assay type: functional
[10] = target: Growth hormone secretagogue receptor type 1 (Homo sapiens, UniProt Q92847)
[11] = target: T5, 5-hydroxytryptamine receptor 3A (Homo sapiens, UniProt P46098); assay type: functional
T5 sequence (P46098 whole entry): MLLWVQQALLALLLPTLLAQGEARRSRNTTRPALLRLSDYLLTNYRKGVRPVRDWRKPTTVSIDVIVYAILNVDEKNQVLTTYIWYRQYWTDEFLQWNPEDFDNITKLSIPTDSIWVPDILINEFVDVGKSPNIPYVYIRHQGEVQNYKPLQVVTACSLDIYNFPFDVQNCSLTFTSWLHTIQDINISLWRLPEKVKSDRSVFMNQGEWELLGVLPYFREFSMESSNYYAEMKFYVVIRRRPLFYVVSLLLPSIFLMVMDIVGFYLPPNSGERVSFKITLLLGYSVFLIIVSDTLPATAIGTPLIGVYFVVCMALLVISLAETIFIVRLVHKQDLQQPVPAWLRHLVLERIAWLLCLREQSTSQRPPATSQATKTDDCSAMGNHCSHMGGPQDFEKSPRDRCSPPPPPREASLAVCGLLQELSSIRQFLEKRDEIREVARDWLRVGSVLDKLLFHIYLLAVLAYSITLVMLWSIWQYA
Further: assay procedure not described here.

Chain of D(3) dopamine receptor (P35462 whole entry): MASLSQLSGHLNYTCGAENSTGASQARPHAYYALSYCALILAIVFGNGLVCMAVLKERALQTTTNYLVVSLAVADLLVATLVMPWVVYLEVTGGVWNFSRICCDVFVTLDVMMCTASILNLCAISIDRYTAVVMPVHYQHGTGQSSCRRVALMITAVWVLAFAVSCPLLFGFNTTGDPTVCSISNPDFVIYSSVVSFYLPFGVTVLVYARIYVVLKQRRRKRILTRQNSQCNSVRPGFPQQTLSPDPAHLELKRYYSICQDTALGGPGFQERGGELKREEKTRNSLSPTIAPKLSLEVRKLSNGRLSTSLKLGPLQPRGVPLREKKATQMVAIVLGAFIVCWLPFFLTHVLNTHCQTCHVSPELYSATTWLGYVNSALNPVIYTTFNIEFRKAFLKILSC
Chain of 5-hydroxytryptamine receptor 2B (P41595 whole entry): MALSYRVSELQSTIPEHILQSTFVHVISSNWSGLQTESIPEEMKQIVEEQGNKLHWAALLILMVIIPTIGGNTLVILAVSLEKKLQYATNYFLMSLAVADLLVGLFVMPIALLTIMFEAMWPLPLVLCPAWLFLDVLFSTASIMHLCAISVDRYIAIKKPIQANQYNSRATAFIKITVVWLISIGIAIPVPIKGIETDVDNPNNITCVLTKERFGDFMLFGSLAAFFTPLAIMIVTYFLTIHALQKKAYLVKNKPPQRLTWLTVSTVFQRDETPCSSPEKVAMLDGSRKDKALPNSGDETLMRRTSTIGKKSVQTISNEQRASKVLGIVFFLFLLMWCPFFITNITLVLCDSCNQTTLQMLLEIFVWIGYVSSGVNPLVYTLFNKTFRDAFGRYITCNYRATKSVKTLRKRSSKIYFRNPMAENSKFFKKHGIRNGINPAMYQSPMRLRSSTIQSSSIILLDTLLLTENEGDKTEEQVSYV
Chain of Sodium-dependent noradrenaline transporter (P23975 whole entry): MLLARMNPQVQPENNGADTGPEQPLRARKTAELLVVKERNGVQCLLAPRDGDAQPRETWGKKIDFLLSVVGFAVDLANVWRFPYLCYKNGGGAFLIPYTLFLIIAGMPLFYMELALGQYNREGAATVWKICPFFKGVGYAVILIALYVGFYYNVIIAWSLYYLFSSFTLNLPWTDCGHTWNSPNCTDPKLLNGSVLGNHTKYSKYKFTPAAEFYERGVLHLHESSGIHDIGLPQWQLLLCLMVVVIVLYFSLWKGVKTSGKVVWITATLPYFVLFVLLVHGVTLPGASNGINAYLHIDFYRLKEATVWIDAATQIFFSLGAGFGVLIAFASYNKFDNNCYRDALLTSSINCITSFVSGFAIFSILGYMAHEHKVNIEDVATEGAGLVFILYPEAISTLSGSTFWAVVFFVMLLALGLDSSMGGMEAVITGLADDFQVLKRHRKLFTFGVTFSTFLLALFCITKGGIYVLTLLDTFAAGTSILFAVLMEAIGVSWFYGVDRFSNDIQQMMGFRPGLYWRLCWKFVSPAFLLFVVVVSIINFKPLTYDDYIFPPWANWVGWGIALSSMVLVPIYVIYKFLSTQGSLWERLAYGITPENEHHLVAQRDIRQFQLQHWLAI
Chain of Neuronal acetylcholine receptor subunit alpha-4 (P43681 whole entry): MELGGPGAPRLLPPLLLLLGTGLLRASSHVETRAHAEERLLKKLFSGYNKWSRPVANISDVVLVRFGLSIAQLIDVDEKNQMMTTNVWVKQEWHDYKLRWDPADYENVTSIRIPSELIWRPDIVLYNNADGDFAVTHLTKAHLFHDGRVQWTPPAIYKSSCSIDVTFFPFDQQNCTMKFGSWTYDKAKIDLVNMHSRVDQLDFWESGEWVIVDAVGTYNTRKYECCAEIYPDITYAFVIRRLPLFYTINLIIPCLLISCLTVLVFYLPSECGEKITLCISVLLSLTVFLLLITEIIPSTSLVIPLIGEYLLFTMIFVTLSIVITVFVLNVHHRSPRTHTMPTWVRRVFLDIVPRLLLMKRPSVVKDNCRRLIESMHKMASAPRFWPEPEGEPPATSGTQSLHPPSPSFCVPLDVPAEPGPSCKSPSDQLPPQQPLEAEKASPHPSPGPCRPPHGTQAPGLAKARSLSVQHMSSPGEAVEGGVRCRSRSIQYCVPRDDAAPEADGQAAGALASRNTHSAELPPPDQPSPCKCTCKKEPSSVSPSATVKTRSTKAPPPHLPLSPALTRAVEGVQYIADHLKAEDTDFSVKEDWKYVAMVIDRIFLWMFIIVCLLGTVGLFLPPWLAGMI
Chain of Bile salt export pump (O95342 whole entry): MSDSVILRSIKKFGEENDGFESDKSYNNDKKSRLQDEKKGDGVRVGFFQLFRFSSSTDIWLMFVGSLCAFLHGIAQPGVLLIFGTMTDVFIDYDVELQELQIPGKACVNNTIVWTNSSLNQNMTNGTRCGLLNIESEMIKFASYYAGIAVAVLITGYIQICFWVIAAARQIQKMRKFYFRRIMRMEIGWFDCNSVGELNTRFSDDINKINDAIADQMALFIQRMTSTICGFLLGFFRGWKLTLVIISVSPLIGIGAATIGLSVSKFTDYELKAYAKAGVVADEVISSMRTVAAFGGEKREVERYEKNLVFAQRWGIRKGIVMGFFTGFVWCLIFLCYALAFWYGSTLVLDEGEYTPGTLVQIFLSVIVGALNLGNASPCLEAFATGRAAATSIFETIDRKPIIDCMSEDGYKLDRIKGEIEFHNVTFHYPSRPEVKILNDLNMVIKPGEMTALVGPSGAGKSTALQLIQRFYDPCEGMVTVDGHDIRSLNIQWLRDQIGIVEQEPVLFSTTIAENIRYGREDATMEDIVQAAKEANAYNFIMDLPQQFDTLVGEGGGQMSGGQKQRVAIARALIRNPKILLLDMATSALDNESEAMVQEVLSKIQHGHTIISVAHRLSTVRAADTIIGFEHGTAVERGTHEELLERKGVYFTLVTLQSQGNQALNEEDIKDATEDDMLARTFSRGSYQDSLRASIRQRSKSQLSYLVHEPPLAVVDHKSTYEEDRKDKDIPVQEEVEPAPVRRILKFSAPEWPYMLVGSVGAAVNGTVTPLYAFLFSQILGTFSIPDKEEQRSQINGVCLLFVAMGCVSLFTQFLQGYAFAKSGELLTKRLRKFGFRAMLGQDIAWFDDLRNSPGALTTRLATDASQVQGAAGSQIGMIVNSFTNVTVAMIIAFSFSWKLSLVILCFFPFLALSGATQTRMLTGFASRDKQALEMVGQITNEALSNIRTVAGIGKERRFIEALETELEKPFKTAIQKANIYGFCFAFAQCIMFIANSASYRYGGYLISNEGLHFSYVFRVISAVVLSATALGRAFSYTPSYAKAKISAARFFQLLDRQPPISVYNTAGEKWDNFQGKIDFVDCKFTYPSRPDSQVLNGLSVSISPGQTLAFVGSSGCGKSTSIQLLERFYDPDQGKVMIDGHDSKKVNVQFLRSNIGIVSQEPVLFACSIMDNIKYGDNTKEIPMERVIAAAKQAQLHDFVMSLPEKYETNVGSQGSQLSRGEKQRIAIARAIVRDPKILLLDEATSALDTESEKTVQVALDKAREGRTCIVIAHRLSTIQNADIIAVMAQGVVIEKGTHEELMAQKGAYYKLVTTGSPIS
Chain of Growth hormone secretagogue receptor type 1 (Q92847 whole entry): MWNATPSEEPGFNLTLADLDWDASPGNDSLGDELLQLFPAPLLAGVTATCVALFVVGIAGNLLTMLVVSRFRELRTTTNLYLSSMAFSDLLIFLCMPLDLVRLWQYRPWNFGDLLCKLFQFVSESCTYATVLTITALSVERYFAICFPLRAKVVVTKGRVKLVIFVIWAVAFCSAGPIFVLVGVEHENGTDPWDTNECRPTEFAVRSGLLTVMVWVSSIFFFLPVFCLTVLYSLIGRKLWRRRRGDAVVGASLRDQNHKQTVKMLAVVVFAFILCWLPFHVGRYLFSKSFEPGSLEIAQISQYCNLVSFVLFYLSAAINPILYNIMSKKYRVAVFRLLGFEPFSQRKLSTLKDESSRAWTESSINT
Chain of Delta-type opioid receptor (P41143 whole entry): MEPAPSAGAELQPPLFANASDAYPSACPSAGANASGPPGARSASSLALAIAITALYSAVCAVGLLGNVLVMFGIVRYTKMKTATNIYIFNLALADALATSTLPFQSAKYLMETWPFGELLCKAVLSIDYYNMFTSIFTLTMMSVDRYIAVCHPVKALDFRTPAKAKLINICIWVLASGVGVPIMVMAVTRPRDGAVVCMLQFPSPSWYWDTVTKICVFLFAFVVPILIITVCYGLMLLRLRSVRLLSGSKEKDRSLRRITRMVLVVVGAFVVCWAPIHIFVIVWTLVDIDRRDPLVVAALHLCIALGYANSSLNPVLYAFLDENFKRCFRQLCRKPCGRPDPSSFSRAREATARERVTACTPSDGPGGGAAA
Chain of 3',5'-cyclic-AMP phosphodiesterase 4D (Q08499 whole entry): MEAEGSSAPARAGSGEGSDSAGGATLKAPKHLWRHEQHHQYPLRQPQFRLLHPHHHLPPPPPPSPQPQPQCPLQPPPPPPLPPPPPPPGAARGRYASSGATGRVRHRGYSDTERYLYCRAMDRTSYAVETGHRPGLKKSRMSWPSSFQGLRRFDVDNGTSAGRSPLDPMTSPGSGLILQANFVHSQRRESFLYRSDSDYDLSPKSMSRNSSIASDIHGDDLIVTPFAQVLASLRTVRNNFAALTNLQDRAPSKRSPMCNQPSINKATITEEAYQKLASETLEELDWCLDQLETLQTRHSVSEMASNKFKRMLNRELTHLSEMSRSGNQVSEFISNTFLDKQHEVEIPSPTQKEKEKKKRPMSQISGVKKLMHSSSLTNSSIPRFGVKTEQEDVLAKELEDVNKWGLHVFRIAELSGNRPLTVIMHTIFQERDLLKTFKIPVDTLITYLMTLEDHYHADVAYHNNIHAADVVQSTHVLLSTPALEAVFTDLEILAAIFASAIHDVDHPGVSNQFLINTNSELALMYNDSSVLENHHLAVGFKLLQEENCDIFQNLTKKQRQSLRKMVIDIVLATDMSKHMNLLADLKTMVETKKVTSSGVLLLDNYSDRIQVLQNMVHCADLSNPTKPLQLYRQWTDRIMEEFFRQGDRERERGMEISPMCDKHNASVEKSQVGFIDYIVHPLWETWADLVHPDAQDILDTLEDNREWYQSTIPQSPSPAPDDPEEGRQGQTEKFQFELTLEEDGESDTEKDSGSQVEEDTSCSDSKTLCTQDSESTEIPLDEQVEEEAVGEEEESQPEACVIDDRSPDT

Compound	AC50 [1]	AC50 [2]	AC50 [3]	AC50 [4]	AC50 [5]	AC50 (D(3) dopamine receptor)	AC50 [6]	AC50 [7]	AC50 [8]	AC50 [9]	AC50 (Adenosine receptor A1)	AC50 (Bile salt export pump)	AC50 [10]	AC50 [11]
C[C@H](CCC(=O)O)[C@H]1CC[C@H]2[C@@H]3[C@H](O)C[C@@H]4C[C@H](O)CC[C@]4(C)[C@H]3CC[C@]12C [CHENODIOL]	> 30 µM	> 30 µM	> 30 µM	> 30 µM	> 30 µM	> 30 µM	> 30 µM	> 30 µM	> 30 µM	3 µM	> 30 µM	13 µM	> 30 µM	> 30 µM
NCCCNCCSP(=O)(O)O [AMIFOSTINE]	> 30 µM	> 30 µM	> 30 µM	> 30 µM	> 30 µM	> 30 µM	> 30 µM	> 30 µM	> 30 µM	> 30 µM	> 30 µM	> 300 µM	> 30 µM	> 30 µM
CCOC(=O)[C@H](CCc1ccccc1)N[C@@H](C)C(=O)N1Cc2ccccc2C[C@H]1C(=O)O	> 10 µM	> 30 µM	> 30 µM	> 10 µM	> 10 µM	> 10 µM	> 10 µM	> 30 µM	> 10 µM	> 10 µM	> 30 µM	100 µM	> 30 µM	> 10 µM
C[C@]12CCC(=O)C=C1CC[C@H]1[C@@H]3CC[C@](O)(C(=O)CO)[C@@]3(C)C[C@H](O)[C@@]12F [FLUDROCORTISONE]	> 30 µM	> 30 µM	> 30 µM	> 30 µM	> 10 µM	> 30 µM	> 30 µM	> 30 µM	> 10 µM	> 10 µM	> 30 µM	> 300 µM	> 30 µM	> 30 µM
CC[N+](CC)(CCNC(=O)C(=O)NCC[N+](CC)(CC)Cc1ccccc1Cl)Cc1ccccc1Cl [AMBENONIUM]	> 30 µM	> 30 µM	7.8 µM	10 µM	> 30 µM	> 30 µM	> 30 µM	> 30 µM	> 30 µM	> 30 µM	> 30 µM	> 300 µM	> 30 µM	> 30 µM
CC(C)C[C@H](NC(=O)[C@H](Cc1ccccc1)NC(=O)c1cnccn1)B(O)O [BORTEZOMIB]	> 30 µM	> 30 µM	> 30 µM	> 30 µM	> 30 µM	> 30 µM	> 30 µM	> 30 µM	> 30 µM	> 30 µM	> 30 µM	> 300 µM	> 30 µM	> 30 µM
